Values of other authors as cited in paper PMC5721631 (BMJ Open Ophthalmology, 2017).

System: adrenal cortisol biosynthesis (CYP11B1)
Settings: single oral administration

SMILES: CC(C)(C(=O)c1cccnc1)c1cccnc1 [Metpyrapone, metyrapone]
- plasma cortisol reduction from baseline: Up to about 80% plasma cortisol reduction from baseline
